The text below walks through data of patent EP4260858A1, “COMPOSITION COMPRISING PRIMIDONE AND PEG” (Christian-Albrechts-Universität zu Kiel, priority 2022, dated 2023).

The conditions of series [1]: cited from earlier work.
In the next series the target is T1, RIPK1 (Homo sapiens, UniProt Q13546).
T1 sequence (Q13546 1-671): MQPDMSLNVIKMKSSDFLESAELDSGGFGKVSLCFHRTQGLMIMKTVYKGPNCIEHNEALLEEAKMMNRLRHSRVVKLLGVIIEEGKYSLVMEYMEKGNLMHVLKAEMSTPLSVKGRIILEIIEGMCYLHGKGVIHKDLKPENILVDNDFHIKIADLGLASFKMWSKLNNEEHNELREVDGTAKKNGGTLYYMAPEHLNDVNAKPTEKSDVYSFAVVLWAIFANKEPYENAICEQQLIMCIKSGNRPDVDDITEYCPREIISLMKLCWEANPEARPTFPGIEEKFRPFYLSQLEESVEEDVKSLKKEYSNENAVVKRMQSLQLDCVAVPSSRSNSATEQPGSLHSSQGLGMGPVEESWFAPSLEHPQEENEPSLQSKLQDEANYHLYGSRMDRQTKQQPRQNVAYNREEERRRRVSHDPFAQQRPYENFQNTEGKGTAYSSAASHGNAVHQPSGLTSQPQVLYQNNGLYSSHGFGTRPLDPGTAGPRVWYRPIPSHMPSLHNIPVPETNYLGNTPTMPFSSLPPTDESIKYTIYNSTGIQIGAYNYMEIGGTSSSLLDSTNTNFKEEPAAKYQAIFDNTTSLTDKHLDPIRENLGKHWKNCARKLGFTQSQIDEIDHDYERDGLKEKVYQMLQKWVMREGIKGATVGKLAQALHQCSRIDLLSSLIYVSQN
The conditions noted are these: background statement, WO 2021/048162 A1; cited from earlier work.

A further series deals with L929 fibroblasts. Kind of series: TNFα + zVAD induced RIPK1-dependent necroptosis, FACS (7-AAD / Annexin V). In kind it is cell-based. On the procedure: (§1) The commercially available drug Necrostatin-1 (Nec-1s, 20 µM) acted as an internal control (inhibitor) of RIPK1-mediated cell death. All drugs were added 30 min before TNFα stimulation. RIPK1-mediated cell death was quantified by FACS analysis using 7-amino-actinomycin D and phosphatidylserine accessibility (Annexin V staining) as markers. […] The commercially available drug Necrostatin-1 (Nec-1s, 20 µM) acted as an internal control (inhibitor) of RIPK1-mediated cell death. All drugs were added 30 min before TNFα stimulation. RIPK1-mediated cell death was quantified by FACS analysis using 7-amino-actinomycin D and phosphatidylserine accessibility (Annexin V staining) as markers. […] All drugs were added 30 min before TNFα stimulation. […] All drugs were added 30 min before TNFα stimulation. Necroptotic cell death was quantified by FACS analysis using 7-amino-actinomycin D and phosphatidylserine accessibility (Annexin V staining) as markers.
(§2) The known RIPK1 kinase inhibitor Nec-1s was used as a control.
(§3) RIPK3-expressing NIH3T3 cells and L929 fibroblasts were obtained from the American Type Culture Collection (Manassas, VA, USA). Both cell lines were cultured in DMEM (Gibco, Thermo Fisher Scientific, Schwerte, Germany) supplemented with 10% (v/v) FCS (PAN-Biotech GmbH, Aidenbach, Germany), 100 U/ml penicillin, and 100 µg/ml streptomycin (both from Merck Millipore GmbH, Darmstadt, Germany). The cell lines were cultured in a humidified 5% CO2 atmosphere at 37°C. Negativity for mycoplasma was routinely checked using a MycoAlert Mycoplasma Detection Kit (Lonza, Cologne, Germany). Unless stated otherwise, assays were conducted using 1x 10^5 cells in 1 ml of medium.
(§4) Recombinant purified TNFα (# 570104) was purchased from BioLegend (Amsterdam, the Netherlands). The pan-caspase inhibitor zVAD-fmk (# 4026865) was purchased from Bachem (Weil am Rhein, Germany), Nec-1s (2263-1-BV) was obtained from BioCat (Heidelberg, Germany); primidone (# P7295) was purchased from Sigma-Aldrich Chemie GmbH (Taufkirchen, Germany). Polyethylenglycol (PEG300, # 202371) was purchased from Merck Millipore, Dimethyl sulfoxide (DMSO, A3672) was obtained from AppliChem (via Thermo Fisher Scientific).
(§5) For testing the ability of primidone to protect against RIPK1-driven cell death, cells were kept in 1 ml medium. To test 1 mM, 0.75 mM and 0.5 mM primidone in PEG300, we pipetted 15.6 µl, 11.7 µl and 7.8 µl, respectively, of the 64.144 mM stock solution to the 1 ml of the medium that contains the cells. […]
(§6) Phosphatidylserine exposure to the outer cell membrane of apoptotic cells or inner plasma membrane of necrotic cells and incorporation of 7-amino-actinomycin D (7-AAD) into necrotic cells was quantified by flow cytometry analysis. […]

The subject of the next series is NIH3T3 cells. Described as above. Type of series: cell-based. On the procedure:
as §1, §2, §3, §4, §5, §6

Setting [2] is: primidone solubilized in PEG300, control Nec-1s 20 µM.

Molecules are shown by their SMILES.

With `CCC1(c2ccccc2)C(=O)NCNC1=O` [primidone, 5-Ethyl-5-phenyl-1,3-diazinane-4,6-dione], in series [1] (DMSO), the “soluble in dimethyl sulfoxide (DMSO) in amounts of up to” value was “up to 44 mg/ml”. Also, in series [1] (ethanol), the “soluble in ethanol up to a concentration” value was “about 3 mg/ml”. In series [1] (water), the “soluble in water up to a concentration” value was “about 0.5 mg/ml”. For the same molecule, the “activation of RIPK1 by phosphorylation or autophosphorylation” value at RIPK1 is recorded as “prevents the activation of RIPK1”. The “protection from RIPK1-mediated necroptosis” value with L929 fibroblasts (10 ng/ml TNFα + 25 µM zVAD, 24 h, 37°C, equimolar primidone (0.5-1 mM) dissolved in DMSO or PEG300, added 30 min before TNFα) is reported as “able to protect”; in the series with NIH3T3 cells (100 ng/ml TNFα + 25 µM zVAD, 24 h, 37°C, equimolar primidone (0.5-1 mM) dissolved in DMSO or PEG300, added 30 min before TNFα) it was “able to protect”. For the same molecule, the “protective effects compared with Nec-1s” value in the series on L929 fibroblasts (setting [2]) and with NIH3T3 cells (setting [2]) was “as strong as those observed for Nec-1s” each time.
